Molecular target: T1, Shab channel (IKS, delayed rectifier, Drosophila Kv2) (Drosophila melanogaster, UniProt P17970)
T1 construct: native channel in larval body-wall muscles (fiber 12)
T1 sequence (P17970 1-1015): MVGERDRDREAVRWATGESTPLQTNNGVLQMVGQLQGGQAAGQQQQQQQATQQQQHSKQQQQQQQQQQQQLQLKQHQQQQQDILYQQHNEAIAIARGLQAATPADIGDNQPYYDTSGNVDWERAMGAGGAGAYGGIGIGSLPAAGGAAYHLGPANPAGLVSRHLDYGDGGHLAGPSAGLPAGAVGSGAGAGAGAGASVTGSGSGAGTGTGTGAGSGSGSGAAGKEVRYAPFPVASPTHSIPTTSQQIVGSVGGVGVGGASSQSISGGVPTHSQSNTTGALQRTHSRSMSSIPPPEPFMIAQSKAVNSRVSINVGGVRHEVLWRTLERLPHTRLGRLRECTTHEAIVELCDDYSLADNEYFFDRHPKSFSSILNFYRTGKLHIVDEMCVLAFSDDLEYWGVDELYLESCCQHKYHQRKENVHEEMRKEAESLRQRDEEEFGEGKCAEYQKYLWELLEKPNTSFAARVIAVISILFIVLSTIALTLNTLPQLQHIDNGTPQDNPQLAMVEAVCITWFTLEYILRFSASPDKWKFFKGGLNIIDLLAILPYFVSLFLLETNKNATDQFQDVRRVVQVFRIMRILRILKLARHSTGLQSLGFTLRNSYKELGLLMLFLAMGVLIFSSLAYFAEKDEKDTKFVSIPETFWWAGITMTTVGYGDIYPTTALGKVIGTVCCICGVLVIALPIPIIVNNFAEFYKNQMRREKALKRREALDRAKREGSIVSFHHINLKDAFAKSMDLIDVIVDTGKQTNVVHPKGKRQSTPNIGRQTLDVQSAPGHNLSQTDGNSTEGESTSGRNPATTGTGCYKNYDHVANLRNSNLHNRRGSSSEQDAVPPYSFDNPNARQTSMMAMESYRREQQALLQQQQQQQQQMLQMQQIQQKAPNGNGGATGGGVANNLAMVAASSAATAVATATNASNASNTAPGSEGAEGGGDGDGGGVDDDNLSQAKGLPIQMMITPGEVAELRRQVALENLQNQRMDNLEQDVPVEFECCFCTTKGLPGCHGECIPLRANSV
Assay: two-microelectrode voltage clamp of native IKS in larval muscle
Assay type: cell-based

**Q.** With `NS(=O)(=O)c1ccc(-c2c(-c3ccccc3)noc2C(F)F)cc1` [SC-791] as the molecule, how does the IC50 read?
**A.** 21 µM

From paper PMC3368905, “Inhibition of Ion Channels and Heart Beat in Drosophila by Selective COX-2 Inhibitor SC-791” (PLoS ONE, 2012)
